Patent US20240156790A1, “COMPOUNDS, COMPOSITIONS, AND METHODS FOR MODULATING FERROPTOSIS AND TREATING EXCITOTOXIC DISORDERS” (THE TRUSTEES OF COLUMBIA UNIVERSITY IN THE CITY OF NEW YORK, priority 2018, published 2024)
Entries after “also recorded” stand apart in the source; their conditions may differ. Like-named read-outs stand apart in the source and are kept apart here.

Legend:
HT-1080 cells [1] = assay: Rescue activity of Fer-1 analogs: inhibition of erastin-, IKE- or RSL3-induced death (Alamar Blue viability); format: cell-based; settings: Homo sapiens
Protocol: HT-1080 cells are cultured in DMEM containing 10% fetal bovine serum, 1% supplemented non-essential amino acids and 1% pen/strep mixture (Gibco) and maintained in a humidified environment at 37° C. with 5% CO2 in a tissue culture incubator. 1,000 HT-1080 cells are seeded per well in duplicate 384-well plates (Corning) using a BioMek FX liquid handling robot (Beckman Coulter). The next day, the medium is replaced with 36 μL of medium containing 10 μM erastin with 4 μL of medium containing a dilution series (previously prepared) of DMSO, Fer-1 (positive control) or Fer-1 analogs. […] Cells are incubated a further 6 hours and then the Alamar Blue fluorescence intensity recorded using a Victor 3 platereader (PerkinElmer)(ex/em 530/590). All experiments are performed at least twice and the background (no cells)-subtracted Alamar Blue values for each combination are averaged between replicates. The same procedure was repeated by replacing erastin (10 μM) with IKE (3 μM) or RSL3 (0.2 μM).

[2] = Microsomal stability, mouse liver microsomes (Table 1); format: in vitro ADME, Mouse: CD1; settings: for average % remaining after 120 minutes: compounds with t1/2 > 120 min, in parentheses; for half-life: liver microsomes
Protocol: Each compound (1 μM) is incubated with mouse plasma, for 4 hours at 37° C., with shaking at 100 rpm. The concentration of compound in the buffer and plasma chambers is determined using LC-MS/MS. Metabolism of each compound is predicted using Sites of Metabolism (Schrodinger Suite), which combines intrinsic reactivity analysis (Hammett-Taft) with induced fit docking against 2C9, 2D6 and 3A4. This approach identifies 90% of known metabolism sites and has a false positive rate of 17%. The in vitro metabolic stability of each compound in mouse liver microsomes is determined. Pooled mouse liver microsomes are prepared and stored at −80° C. until needed. […]

HT-1080 cells [3] = assay: Rescue activity of selected Fer-1 analogs, dose-response in HT-1080 cells (cell titer glo); format: cell-based; settings: for potency compared, in words: 0.2 μM RSL3, 10 μM erastin; for toxicity (overall drop in viability): at 10 μM compound; for IC50: Homo sapiens, HT-1080, range 10 μM-0 μM, 48 hours
Protocol: Selected Fer-1 analogs containing a pyridine moiety (FIG. 4) were tested to examine their efficacy and overall potency in inhibiting ferroptosis. For each of these compounds, dose-response curves were generated in HT-1080 cells looking at the effectiveness of the molecules in inhibiting ferroptosis induced by either 3 μM IKE or 0.2 μM RSL3, Fer-1 was used as a positive control. For each dose-response curve, 1,000 cells/well were seeded in a 384 well plate and allowed to adhere overnight prior to treating with compound from a daughter plate. Cells were treated for 48 hours, unless otherwise noted, prior to viability being analyzed using cell titer glo (40 μL per well). All liquid handling was performed using the BioMek. All samples were prepared in triplicate, unless otherwise noted.

HT-1080 cells [4] = assay: Cell viability assays in HT-1080 cells, ferroptosis induced by IKE or RSL3 (Example 8); format: cell-based
Protocol: Cell culture assays were incubated at 37° C. with 5% CO2. HT-1080 cells were grown in DMEM (Corning) supplemented with 10% FBS (Life Technologies), 1% Penicillin-Streptomycin 10,000 U/mL (Gibco), and 1% MEM Non-Essential Amino Acids Solution 100× (Gibco). For cell viability assays, cells were trypsinized, counted, and seeded into 384-well white polypropylene plates at 1,000 cells/well, unless otherwise specified. After allowing cells to adhere overnight, compounds in DMSO stocks were arrayed in a 16-point dilution series prepared in a mother plate, and treated from a daughter plate, [DMSO]=0.28%. After 24 or 48 h, 50% CellTiter-Glo (Promega) 50% cell culture medium was added to each well and incubated at room temperature with shaking for 15 min. Luminescence was measured using a Victor X5 plate reader (PerkinElmer). All cell viability data were normalized to the DMSO vehicle condition. […] All 384w measurements were performed in triplicate
We first evaluated the efficacy of four pyridine analogs, TH-2-9-1, TH-2-31, TH-2-37-1, and TH-2-37-2, in suppressing ferroptosis induced by IKE and RSL3 in HT-1080 cells. […] We sought to determine whether incorporation of pyridine changed stability in mouse liver microsomes.

[5] = Microsomal Stability Assay (Examples 6 and 8); format: in vitro ADME, mouse; settings: for microsomal stability / half-life, in words: assessed over two hours
Protocol: (§1) To a 96-well polypropylene plate was added phosphate buffer (182.2 μL, pH 7.4, 100 mM) followed by addition of NADPH-regenerating system solution A (10 μL), and NADPH regenerating system solution B (2 μL) (Corning Gentest 3P NADPH regenerating system solution A (#451220) and B (#451200)). A stock solution of analog (0.8 μL. 5 mM) or fer-1 (positive control) was added and the mixture was warmed to 37° C. for 5 min. Mouse microsomes (CD-1, 20 mg/mL, Life Technologies) (5 μL, thawed in 37° C. water bath before use) were added. The resulting reaction mixture was kept at 37° C. with gentle agitation for the duration of the experiment. At selected time points (0, 1, 5, 10, 20, 30, 60 and 120 min) aliquots (15 μL) were withdrawn from the plate and quenched upon addition to cold methanol (60 μL), containing an internal standard (5 μM) in a separate 96-well polypropylene plate. At the completion of the final time-point, the samples were centrifuged at 4,000 rpm for 5 min at 4° C. The supernatant (40 μL) was withdrawn and transferred to a sample vial with insert. The samples were analyzed by LC-MS. LC-MS analysis was performed on a platform comprising a Thermo Scientific Dionex Ultimate 3000 and a Bruker amaZon SL equipped with an electrospray ionization source controlled by Bruker Hystar 3.2. Chromatographic separation was performed by injecting 5 μL of the sample onto an Agilent Eclipse Plus C18 column (2.1×50 mm, 3.5 μm) maintained at 20° C. The flow rate was maintained at 400 μL/min. The initial flow conditions were 80% solvent A (water containing 0.1% acetic acid) and 20% solvent B (methanol containing 0.1% acetic acid). Solvent B was raised to 80% over 0.50 min by 1.50 min. Solvent B was raised to 100% by 5.00 min and held there for 3.25 min. […] All analogs were detected in positive mode as [M+H]*. The percent of compound remaining at each time-point was calculated as the ratio of the integrated compound peak over the internal standard peak and standardized to the t=0 time-point. Values were plotted in GraphPad Prism 9 and fit with a one phase decay.
as §1, with “and NADPH-regenerating” for “and NADPH regenerating”, “rpm (1872 g)” for “rpm”, “[M+H]*. […]” for “[M+H]*. The percent of compound remaining at each time-point was calculated as the ratio of the integrated compound peak over the internal standard peak and standardized to the t=0 time-point. Values were plotted in GraphPad Prism 9 and fit with a one phase decay.”

[6] = HT-1080, ^a 50% viability, HT-1080 cells treated with 10 μM erastin
[7] = HT-1080, no footnote marker printed, inducer not stated
[8] = HT-1080, ^b 50% viability, HT-1080 treated with 3 μM IKE
[9] = HT-1080, ^c 50% viability, HT-1080 treated with 0.2 μM RSL3
[10] = CD1, mouse, Mouse: CD1, read-out: Microsomal Stability t1/2

## CCCCCCNc1cc(C(=O)OC(C)(C)C)c(C)cc1NC12CC3CC(CC(C3)C1)C2 [CFI-A9]
HT-1080 cells [1]; [6]
  EC50: 65 nM
[2]; Mouse: CD1
  Microsomal Stability t1/2: Mouse: >120 min
  average % remaining after 120 minutes: min (83.6%) Human: TBD Rat: TBD Dog Pig: TBD

## COc1cnc(NC2CCCCC2)c(N)c1 [TH-2-5, N^2-cyclohexyl-5-methoxypyridine-2,3-diamine]
HT-1080 cells [1]; [7]
  EC50: > 350 nM
HT-1080 cells [3]; 0.2 μM RSL3, inhibitor range 10 μM-0 μM
  death observed with RSL3: No death was observed

## Cc1noc(-c2cnc(NC3CCCCC3)c(N)c2)n1 [TH-2-30]
HT-1080 cells [1]; [8]
  EC50: 461 nM
HT-1080 cells [1]; [9]
  EC50: 118 nM
HT-1080 cells [3]; 3 μM IKE
  potency compared, in words: relatively less potent; also recorded: potency comparable to Fer-1 against IKE and RSL3
HT-1080 cells [3]
  toxicity (overall drop in viability): appeared to be toxic

## Cc1noc(-c2cnc(NC3CCCCC3)c(NC3CCCCC3)c2)n1 [CFI-102]
HT-1080 cells [1]; [8]
  EC50: 0.9 nM
HT-1080 cells [1]; [9]
  EC50: 0.9 nM
HT-1080 cells [3]; 3 μM IKE
  potency compared, in words: the most potent analog for both IKE an RSL3
HT-1080 cells [3]; 0.2 μM RSL3, read-out: IC50 against RSL3
  IC50: 10 to 20 nM
HT-1080 cells [3]; 3 μM IKE, read-out: IC50 against IKE
  IC50: 10 to 20 nM
HT-1080 cells [3]
  toxicity (overall drop in viability): appeared to be toxic
HT-1080 cells [3]; starting concentration 5 μM, treated 51 hours, IKE and RSL3
  concentration achieving full rescue: around 0.0001 μM
[2]; [10]
  half-life: 0.5 to 1 h

## C=C/C=C(/CN/C(=C/C(=C\C)C(=O)OCC)CNC(CC)CCC)C(=C)O (stereo not drawn) [CFI-M82]
[2]; Mouse: CD1
  Microsomal Stability t1/2: Mouse: 10 min

## CC(C)(C)OC(=O)c1ccc(NC2CCCCC2)c(NC23CC4CC(CC(C4)C2)C3)c1 [DL034, tert-butyl 3-(((3s,5s,7s)-adamantan-1-yl)amino)-4-(cyclohexylamino)benzoate]
HT-1080 cells [4]
  potency relative to fer-1 at suppressing ferroptosis, in words: less potent than fer-1
[5]
  microsomal stability / half-life, in words: half-lives greater than two hours

## Cc1noc(-c2ccc(NC34CC5CC(CC(C5)C3)C4)c(N)c2)n1 [CFI-4066]
HT-1080 cells [1]; [6]
  EC50: 123 nM
[2]; [10]
  half-life: 0.503 to 0.54 h

## CC(C)(C)OC(=O)c1ccc(NC2CCCCC2)c(NC23CC4CC(CC(C4)C2)C3)c1 [CFI-L034]
HT-1080 cells [1]; [7]
  EC50: 166 nM
[2]; CD1 (mouse), mouse, human, in either mouse or human liver microsomes, read-out: T1/2
  half-life: > 2 h
[2]; [10]
  half-life: > 2 h
[2]; Mouse: CD1
  average % remaining after 120 minutes: min (60.2%) Human: TBD Rat: TBD Dog: Pig: TBD

## Cc1cccc(C)c1CNc1cc(C(=O)OC(C)(C)C)ccc1NC12CC3CC(CC(C3)C1)C2 [DL047, tert-butyl 4-(((3s,5s,7s)-adamantan-1-yl)amino)-3-((2,6-dimethylbenzyl)amino)benzoate]
HT-1080 cells [4]
  potency relative to fer-1 at suppressing ferroptosis, in words: less potent than fer-1
[5]
  microsomal stability / half-life, in words: half-lives greater than two hours

## Nc1cc(-c2ncco2)ccc1NC1CCCCC1 [PHB4051, N1-cyclohexyl-4-(oxazol-2-yl)benzene-1,2-diamine]
HT-1080 cells [4]
  potency relative to fer-1 at suppressing ferroptosis, in words: more potent than fer-1
[5]; CD-1, mouse, liver microsomes, pH 7.4, text, read-out: half-life in mouse liver microsomes
  half-life at 20 µM: < 1 h
[5]
  microsomal stability / half-life, in words: the least stable compound

## Cc1noc(-c2ccc(NC34CC5CC(CC(C5)C3)C4)c(NC3CCCCC3)c2)n1 [PHB4083, N1-((3s,5s,7s)-adamantan-1-yl)-N2-cyclohexyl-4-(3-methyl-1,2,4-oxadiazol-5-yl)benzene-1,2-diamine]
HT-1080 cells [4]
  potency relative to fer-1 at suppressing ferroptosis, in words: more potent than fer-1
[5]
  microsomal stability / half-life, in words: half-lives greater than two hours

## CC(C)(C)OC(=O)c1cc(NC2CCCCC2)c(NC23CC4CC(CC(C4)C2)C3)cc1Cl [AZII11, tert-butyl 4-(((3s,5s,7s)-adamantan-1-yl)amino)-2-chloro-5-(cyclohexylamino)benzoate]
HT-1080 cells [4]
  potency relative to fer-1 at suppressing ferroptosis, in words: less potent than fer-1
[5]
  microsomal stability / half-life, in words: half-lives greater than two hours

## CCCCCCNc1cc(C(=O)OC(C)(C)C)c(F)cc1NC12CC3CC(CC(C3)C1)C2 [CFI-A8]
HT-1080 cells [1]; [8]
  EC50: 20 nM
HT-1080 cells [1]; [9]
  EC50: 19 nM
[2]; Mouse: CD1
  Microsomal Stability t1/2: Mouse: >120 min
  average % remaining after 120 minutes: min (76.4%) Human: TBD Rat: TBD Dog: Pig: TBD
